According to patent publication US11547697B2, “Heterocyclic compounds and uses thereof” (MILLENNIUM PHARMACEUTICALS, INC., priority 2009, dated 2023):
pIC50: −log10 of the molar value. Read-outs that look alike come from different tables or passages of the source.

What was measured:
p110α/p85α = p110α/p85α (Homo sapiens (Human), UniProt P42336); experiment: PI 3-Kinase (human) HTRF assay, p110α/p85α; format: biochemical
[1] = tested on: tumor cells with a PI3Kα mutation (e.g., MDA-MB-361 and T47D); experiment: Proliferation of tumor cells with PI3Kα mutation; format: cell-based; conditions: Homo sapiens
p110γ = p110γ (Homo sapiens (Human), UniProt P48736); experiment: PI 3-Kinase (human) HTRF assay, p110γ; format: biochemical
p110γ, sequence (P48736 whole entry): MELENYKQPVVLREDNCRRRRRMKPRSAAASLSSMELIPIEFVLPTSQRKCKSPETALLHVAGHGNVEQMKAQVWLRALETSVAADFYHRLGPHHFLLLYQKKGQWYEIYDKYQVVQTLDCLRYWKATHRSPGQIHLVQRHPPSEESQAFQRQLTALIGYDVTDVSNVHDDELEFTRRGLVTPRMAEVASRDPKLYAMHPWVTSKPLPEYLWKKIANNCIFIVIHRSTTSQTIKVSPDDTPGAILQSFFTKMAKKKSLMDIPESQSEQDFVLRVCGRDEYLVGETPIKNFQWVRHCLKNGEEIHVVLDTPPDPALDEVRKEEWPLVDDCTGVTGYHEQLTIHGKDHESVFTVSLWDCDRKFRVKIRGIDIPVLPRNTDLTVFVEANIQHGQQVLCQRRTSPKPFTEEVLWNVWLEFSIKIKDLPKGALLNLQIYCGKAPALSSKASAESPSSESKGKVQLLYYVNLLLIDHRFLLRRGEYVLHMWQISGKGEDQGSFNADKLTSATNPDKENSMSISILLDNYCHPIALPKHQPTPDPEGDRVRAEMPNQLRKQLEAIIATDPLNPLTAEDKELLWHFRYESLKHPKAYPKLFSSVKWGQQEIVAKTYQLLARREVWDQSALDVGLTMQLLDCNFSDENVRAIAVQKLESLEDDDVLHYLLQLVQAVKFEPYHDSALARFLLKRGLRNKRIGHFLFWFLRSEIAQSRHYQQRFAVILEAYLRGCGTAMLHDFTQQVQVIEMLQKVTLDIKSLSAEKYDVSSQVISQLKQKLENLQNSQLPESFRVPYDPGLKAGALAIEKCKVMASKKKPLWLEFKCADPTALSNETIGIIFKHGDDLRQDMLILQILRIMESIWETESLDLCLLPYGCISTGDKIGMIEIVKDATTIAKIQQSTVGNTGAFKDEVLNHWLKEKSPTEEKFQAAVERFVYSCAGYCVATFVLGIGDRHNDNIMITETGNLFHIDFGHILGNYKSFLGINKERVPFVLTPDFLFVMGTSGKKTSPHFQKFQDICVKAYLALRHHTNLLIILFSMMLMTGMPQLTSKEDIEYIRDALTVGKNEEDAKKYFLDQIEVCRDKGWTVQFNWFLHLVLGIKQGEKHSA

p110β/p85α = p110β/p85α (Homo sapiens (Human), UniProt P42338); experiment: PI 3-Kinase (human) HTRF assay, p110β/p85α; format: biochemical
p110β/p85α, sequence (P42338 whole entry): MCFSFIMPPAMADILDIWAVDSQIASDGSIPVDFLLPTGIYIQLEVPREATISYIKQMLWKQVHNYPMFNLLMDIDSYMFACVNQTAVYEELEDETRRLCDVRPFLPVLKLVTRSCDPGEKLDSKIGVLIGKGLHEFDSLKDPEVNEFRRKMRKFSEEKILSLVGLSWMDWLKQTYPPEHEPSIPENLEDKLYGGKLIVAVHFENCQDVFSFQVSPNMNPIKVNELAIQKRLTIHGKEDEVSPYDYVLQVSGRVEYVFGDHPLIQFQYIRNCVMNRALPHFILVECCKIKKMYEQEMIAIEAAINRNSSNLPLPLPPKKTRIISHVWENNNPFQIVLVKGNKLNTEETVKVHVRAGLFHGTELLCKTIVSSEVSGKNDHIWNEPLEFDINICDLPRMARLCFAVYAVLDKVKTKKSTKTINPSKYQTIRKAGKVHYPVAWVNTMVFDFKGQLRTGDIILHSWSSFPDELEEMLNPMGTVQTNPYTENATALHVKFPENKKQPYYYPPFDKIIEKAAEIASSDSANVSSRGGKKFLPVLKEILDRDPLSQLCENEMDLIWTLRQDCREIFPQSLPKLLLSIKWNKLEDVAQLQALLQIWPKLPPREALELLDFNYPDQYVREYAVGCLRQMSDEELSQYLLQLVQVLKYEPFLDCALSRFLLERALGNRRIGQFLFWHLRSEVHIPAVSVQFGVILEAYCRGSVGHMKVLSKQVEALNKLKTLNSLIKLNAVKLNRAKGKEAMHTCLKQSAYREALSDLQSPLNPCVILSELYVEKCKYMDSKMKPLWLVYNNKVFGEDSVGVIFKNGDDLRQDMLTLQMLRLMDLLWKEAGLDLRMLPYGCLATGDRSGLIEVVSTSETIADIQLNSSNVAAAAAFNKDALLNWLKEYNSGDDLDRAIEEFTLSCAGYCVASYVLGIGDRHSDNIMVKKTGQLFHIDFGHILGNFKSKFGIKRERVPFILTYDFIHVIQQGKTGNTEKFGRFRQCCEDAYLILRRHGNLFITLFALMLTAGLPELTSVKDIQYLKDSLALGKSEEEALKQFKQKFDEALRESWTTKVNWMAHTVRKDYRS
p110β/p85α, sequence (P27986 whole entry partner): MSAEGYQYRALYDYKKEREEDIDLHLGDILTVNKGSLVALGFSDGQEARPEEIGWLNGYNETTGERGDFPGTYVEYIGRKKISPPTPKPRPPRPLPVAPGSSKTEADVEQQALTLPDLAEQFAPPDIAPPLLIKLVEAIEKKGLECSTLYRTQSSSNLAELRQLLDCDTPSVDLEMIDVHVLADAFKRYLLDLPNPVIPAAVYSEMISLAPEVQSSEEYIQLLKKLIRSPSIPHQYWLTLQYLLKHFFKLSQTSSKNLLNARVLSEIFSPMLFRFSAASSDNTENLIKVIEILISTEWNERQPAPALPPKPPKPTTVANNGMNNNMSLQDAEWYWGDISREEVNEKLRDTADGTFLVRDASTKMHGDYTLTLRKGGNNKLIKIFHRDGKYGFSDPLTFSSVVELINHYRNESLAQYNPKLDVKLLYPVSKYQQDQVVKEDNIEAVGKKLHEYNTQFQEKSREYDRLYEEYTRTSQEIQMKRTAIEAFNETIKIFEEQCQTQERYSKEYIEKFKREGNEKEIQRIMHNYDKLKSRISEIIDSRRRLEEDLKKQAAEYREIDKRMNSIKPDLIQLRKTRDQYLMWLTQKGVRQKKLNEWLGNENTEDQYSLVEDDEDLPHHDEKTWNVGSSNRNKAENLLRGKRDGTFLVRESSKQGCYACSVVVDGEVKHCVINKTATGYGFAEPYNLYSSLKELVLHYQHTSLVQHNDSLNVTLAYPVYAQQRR

p110δ/p85α = p110δ/p85α (Homo sapiens (Human), UniProt O00329); experiment: PI 3-Kinase (human) HTRF assay, p110δ/p85α; format: biochemical
p110δ/p85α, sequence (O00329 whole entry): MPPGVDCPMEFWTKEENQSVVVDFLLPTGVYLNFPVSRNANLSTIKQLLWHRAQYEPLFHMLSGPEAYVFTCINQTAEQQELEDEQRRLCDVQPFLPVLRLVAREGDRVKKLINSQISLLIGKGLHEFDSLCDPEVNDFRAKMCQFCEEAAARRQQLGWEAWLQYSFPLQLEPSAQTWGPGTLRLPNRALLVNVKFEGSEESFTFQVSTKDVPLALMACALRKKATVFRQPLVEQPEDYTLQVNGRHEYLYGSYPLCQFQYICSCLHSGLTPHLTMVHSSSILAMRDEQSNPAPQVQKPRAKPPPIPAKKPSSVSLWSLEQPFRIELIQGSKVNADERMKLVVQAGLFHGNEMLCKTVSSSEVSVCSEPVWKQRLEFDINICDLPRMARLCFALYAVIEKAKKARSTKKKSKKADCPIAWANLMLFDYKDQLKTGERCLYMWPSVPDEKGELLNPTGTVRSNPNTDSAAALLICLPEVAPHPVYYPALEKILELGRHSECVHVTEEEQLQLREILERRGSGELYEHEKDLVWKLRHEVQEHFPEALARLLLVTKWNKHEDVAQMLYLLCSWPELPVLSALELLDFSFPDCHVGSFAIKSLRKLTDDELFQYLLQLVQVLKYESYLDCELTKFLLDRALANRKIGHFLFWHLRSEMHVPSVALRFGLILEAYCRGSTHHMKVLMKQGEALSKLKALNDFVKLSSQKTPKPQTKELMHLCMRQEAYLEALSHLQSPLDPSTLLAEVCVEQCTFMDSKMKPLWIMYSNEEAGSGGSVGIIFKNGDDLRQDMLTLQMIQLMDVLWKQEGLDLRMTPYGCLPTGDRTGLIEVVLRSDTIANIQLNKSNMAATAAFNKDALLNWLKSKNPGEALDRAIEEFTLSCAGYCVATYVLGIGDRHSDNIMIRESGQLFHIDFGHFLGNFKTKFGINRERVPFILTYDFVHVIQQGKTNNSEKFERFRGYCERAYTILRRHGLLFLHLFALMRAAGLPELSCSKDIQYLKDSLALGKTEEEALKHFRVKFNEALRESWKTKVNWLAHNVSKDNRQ
p110δ/p85α, sequence (P27986 whole entry partner): as the sequence (P27986 whole entry partner) above

[2] = in vitro, read-out: PI3K α IC50
[3] = T47D cells, read-out: T47D proliferation IC50
[4] = in vitro, read-out: PI3K γ IC50
[5] = in vitro, read-out: PI3K β IC50
[6] = in vitro, read-out: PI3K δ IC50
[7] = PC3, read-out: PC3 proliferation In Vitro IC50

p110α/p85α, sequence (P42336 whole entry): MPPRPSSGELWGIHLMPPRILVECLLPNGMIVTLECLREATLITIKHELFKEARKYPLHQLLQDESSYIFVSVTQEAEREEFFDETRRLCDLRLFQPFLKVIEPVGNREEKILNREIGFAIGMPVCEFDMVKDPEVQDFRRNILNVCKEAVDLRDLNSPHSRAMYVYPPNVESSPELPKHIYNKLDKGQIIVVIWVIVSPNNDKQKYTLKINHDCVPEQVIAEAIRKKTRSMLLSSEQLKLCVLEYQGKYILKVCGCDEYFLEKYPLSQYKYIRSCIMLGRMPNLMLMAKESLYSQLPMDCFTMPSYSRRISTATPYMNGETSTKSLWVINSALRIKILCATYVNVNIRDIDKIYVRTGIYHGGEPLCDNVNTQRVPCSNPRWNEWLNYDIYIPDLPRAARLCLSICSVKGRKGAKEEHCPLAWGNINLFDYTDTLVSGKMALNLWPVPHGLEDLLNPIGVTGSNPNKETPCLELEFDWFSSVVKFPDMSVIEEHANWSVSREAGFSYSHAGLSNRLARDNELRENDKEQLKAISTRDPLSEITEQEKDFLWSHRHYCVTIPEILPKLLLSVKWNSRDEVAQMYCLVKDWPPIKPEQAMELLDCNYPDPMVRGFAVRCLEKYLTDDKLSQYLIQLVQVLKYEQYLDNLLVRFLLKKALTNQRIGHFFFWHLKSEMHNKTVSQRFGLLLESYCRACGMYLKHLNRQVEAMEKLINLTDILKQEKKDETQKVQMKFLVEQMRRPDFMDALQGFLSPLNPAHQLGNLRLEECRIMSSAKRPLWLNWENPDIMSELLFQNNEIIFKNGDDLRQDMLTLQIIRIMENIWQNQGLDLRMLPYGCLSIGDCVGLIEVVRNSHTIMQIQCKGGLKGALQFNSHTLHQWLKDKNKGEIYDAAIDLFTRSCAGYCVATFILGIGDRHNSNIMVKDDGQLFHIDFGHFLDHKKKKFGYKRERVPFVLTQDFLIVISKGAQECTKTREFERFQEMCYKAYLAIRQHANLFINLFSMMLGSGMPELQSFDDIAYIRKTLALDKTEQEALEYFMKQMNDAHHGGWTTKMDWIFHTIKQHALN
p110α/p85α, sequence (P27986 whole entry partner): as the sequence (P27986 whole entry partner) above

pIC50 (p110α/p85α; [2])	pIC50 [1, 3]	pIC50 (p110γ; [4])	pIC50 (p110β/p85α; [5])	pIC50 (p110δ/p85α; [6])	pIC50 (p110α/p85α; read-out: PI3K α In Vitro IC50)	pIC50 [1, 7]	pIC50 (p110γ; read-out: PI3K γ In Vitro IC50)	pIC50 (p110β/p85α; read-out: PI3K β In Vitro IC50)	pIC50 (p110δ/p85α; read-out: PI3K δ In Vitro IC50)	SMILES
> 7.00	> 6.00	> 6.00	> 5.00	> 5.00						Nc1nc2cc(-c3ccc4ncc(C(=O)N5CCC(O)C5)n4c3)ccc2o1 (stereo not shown) [compound 202]
> 7.00	> 6.00	> 7.00	> 7.00	> 6.00						C[C@H](N)C(=O)N1CCN(c2cnc3ccc(-c4ccc5oc(N)nc5c4)cc3n2)CC1 [compound 207]
> 7.00	> 5.00	> 5.00	> 6.00	> 6.00						C[C@@H](N)C(=O)N1CCN(c2cnc3ccc(-c4ccc5oc(N)nc5c4)cc3n2)CC1 [compound 208]
> 7.00	> 5.00	> 7.00	> 6.00	> 5.00						Nc1nc2cc(-c3ccc4ncc(N5CCC(O)C5)nc4c3)ccc2o1 (stereo not shown) [compound 209]
> 7.00	> 6.00	> 7.00	> 7.00	> 7.00						CC(=O)N1CCC(Nc2ncnc3ccc(-c4ccc5oc(N)nc5c4)nc23)CC1 [compound 211]
> 7.00	> 6.00	> 6.00	> 6.00	> 6.00						CN1CCC(Nc2ncnc3ccc(-c4ccc5oc(N)nc5c4)nc23)CC1 [compound 212]
> 5.00	> 5.00	> 6.00	> 6.00	> 5.00						Nc1nc2cc(-c3ccc4sc(N)nc4c3)ccc2o1 [compound 248]
> 7.00	> 5.00	> 5.00	> 5.00	> 5.00						Nc1nc2cc(-c3ccc4ncc(C(=O)N5CCN(C6CC6)CC5)n4c3)ccc2o1 [compound 263]
> 7.00	> 6.00	> 6.00	> 5.00	> 5.00						Nc1nc2cc(-c3ccc4ncc(C(=O)N5CC[C@H](O)C5)n4c3)ccc2o1 [compound 264]
> 7.00	> 6.00	> 7.00	> 5.00	> 5.00						Nc1nc2cc(-c3ccc4ncc(C(=O)N5CC[C@@H](O)C5)n4c3)ccc2o1 [compound 265]
> 7.00	> 5.00	> 6.00	> 5.00	> 6.00						Nc1nc2cc(-c3ccc4ncc(C(=O)N5CC(N6CCOCC6)C5)n4c3)ccc2o1 [compound 266]
> 7.00	> 6.00	> 6.00	> 5.00	> 5.00						C[C@H]1CN(C(=O)C2CN(c3cnc4ccc(-c5ccc6oc(N)nc6c5)cc4n3)C2)CCN1 [compound 268]
> 7.00	> 5.00	> 5.00	> 6.00	> 6.00						CC(C)[C@H](N)C(=O)N1CCN(c2cnc3ccc(-c4ccc5oc(N)nc5c4)cc3n2)CC1 [compound 269]
> 7.00	> 6.00	> 6.00	> 6.00	> 6.00						CN1CCN(CCNc2cnc3ccc(-c4ccc5oc(N)nc5c4)cc3n2)CC1 [compound 275]
> 7.00	> 6.00	> 6.00	> 6.00	> 5.00						Nc1nc2cc(-c3ccc4ncc(N5CCN(C(=O)CN6CCCC6)CC5)nc4c3)ccc2o1 [compound 278]
> 7.00	> 6.00	> 5.00	> 5.00	> 5.00						CCN(CC)CC(=O)N1CCN(c2cnc3ccc(-c4ccc5oc(N)nc5c4)cc3n2)CC1 [compound 279]
> 7.00	> 5.00	> 6.00	> 5.00	> 5.00						NC(=O)[C@H]1CCCN1C(=O)C1CN(c2cnc3ccc(-c4ccc5oc(N)nc5c4)cc3n2)C1 [compound 284]
> 7.00	> 6.00	> 6.00	> 5.00	> 6.00						CC(C)N1CCN(C(=O)C2CN(c3cnc4ccc(-c5ccc6oc(N)nc6c5)cc4n3)C2)CC1 [compound 285]
> 7.00	> 6.00	> 7.00	> 6.00	> 6.00						Nc1nc2cc(-c3ccc4ncc(N5CCN(C(=O)C6(N)CCC6)CC5)nc4c3)ccc2o1 [compound 286]
> 7.00	> 5.00	> 6.00	> 5.00	> 6.00						Nc1nc2cc(-c3ccc4ncc(N5CC(C(=O)N6CCN(CC7CC7)CC6)C5)nc4c3)ccc2o1 [compound 287]
> 6.00	> 5.00	> 5.00	> 6.00	> 6.00						Nc1nc2cc(-c3ccc4ncc(C(=O)NCCCN5CCOCC5)n4c3)ccc2o1 [compound 288]

pIC50 (p110α/p85α; [2])	pIC50 [1, 3]	pIC50 (p110γ; [4])	pIC50 (p110β/p85α; [5])	pIC50 (p110δ/p85α; [6])	pIC50 (p110α/p85α; read-out: PI3K α In Vitro IC50)	pIC50 [1, 7]	pIC50 (p110γ; read-out: PI3K γ In Vitro IC50)	pIC50 (p110β/p85α; read-out: PI3K β In Vitro IC50)	pIC50 (p110δ/p85α; read-out: PI3K δ In Vitro IC50)	SMILES
> 7.00	> 6.00	> 6.00	> 6.00	> 7.00						Nc1nc2cc(-c3ccc4ncc(C(=O)NCCCN5CCCC5)n4c3)ccc2o1 [compound 293]
> 7.00	> 6.00	> 7.00	> 6.00	> 7.00						Nc1nc2cc(-c3ccc4ncc(N5CCN(C(=O)[C@H](N)CO)CC5)nc4c3)ccc2o1 [compound 299]
> 7.00	> 6.00	> 5.00	> 5.00	> 6.00						Nc1nc2cc(-c3ccc4ncc(N5CC(N6CCN(CCO)CC6)C5)nc4c3)ccc2o1 [compound 333]
> 7.00	> 6.00	> 5.00	> 5.00	> 5.00						Nc1nc2cc(-c3ccc4ncc(N5CC(N6CCS(=O)(=O)CC6)C5)nc4c3)ccc2o1 [compound 334]
> 7.00	> 5.00	> 5.00	> 5.00	> 5.00						Cc1cn(C2CCN(c3cnc4ccc(-c5ccc6oc(N)nc6c5)cc4n3)CC2)cn1 [compound 338]
> 7.00	> 6.00	> 5.00	> 5.00	> 6.00						C[C@@H]1CN(C2CN(c3cnc4ccc(-c5ccc6oc(N)nc6c5)cc4n3)C2)CCN1 [compound 355]
> 7.00	> 6.00	> 7.00	> 7.00	> 7.00						Nc1nc2cc(-c3ccn4ncc(-c5ccncc5)c4c3)ccc2o1 [compound 356]
					> 7.00	> 6.00	> 7.00	> 6.00	> 7.00	O=C(c1cnc2ccc(-c3cnc(Cl)c(NS(=O)(=O)c4ccccc4)c3)cn12)N1CCOCC1 [compound 451]
					> 7.00	> 5.00	> 7.00	> 6.00	> 7.00	O=C(c1cnc2ccc(-c3cnc(Cl)c(NS(=O)(=O)c4ccccc4F)c3)cn12)N1CCOCC1 [compound 452]
					> 7.00	> 6.00	> 7.00	> 7.00	> 7.00	O=C(c1cnc2ccc(-c3cnc(Cl)c(NS(=O)(=O)c4ccc(F)cc4)c3)cn12)N1CCOCC1 [compound 457]
					> 7.00	> 6.00	> 7.00	> 7.00	> 7.00	O=C(c1cnc2ccc(-c3cnc(Cl)c(NS(=O)(=O)c4cccc(F)c4)c3)cn12)N1CCOCC1 [compound 458]
					> 7.00	> 6.00	> 7.00	> 7.00	> 7.00	COc1ccc(-c2ccc3ncc(C(=O)N4CCOCC4)n3c2)cc1NS(=O)(=O)c1cccnc1 [compound 462]
					> 7.00	> 6.00	> 7.00	> 5.00	> 5.00	COC1CN(C(=O)c2cnc3ccc(-c4ccc5oc(N)nc5c4)cn23)C1 [compound 467]
					> 7.00	> 5.00	> 6.00	> 5.00	> 5.00	Nc1nc2cc(-c3ccc4ncc(C(=O)N5CC(N6CC[C@H](O)C6)C5)n4c3)ccc2o1 [compound 469]
					> 7.00	> 5.00	> 6.00	> 5.00	> 5.00	Nc1nc2cc(-c3ccc4ncc(C(=O)N5CC(N6CC[C@@H](O)C6)C5)n4c3)ccc2o1 [compound 470]
					> 7.00	> 5.00	> 6.00	> 5.00	> 5.00	CN(C(=O)c1cnc2ccc(-c3ccc4oc(N)nc4c3)cn12)C1CCOCC1 [compound 472]
					> 7.00	> 6.00	> 6.00	> 5.00	> 6.00	Nc1nc2cc(-c3ccc4ncc(C(=O)N5CC[C@H](n6cccn6)C5)n4c3)ccc2o1 [compound 478]
					> 7.00	> 6.00	> 5.00	> 5.00	> 6.00	C[C@@H]1CN(C2CN(C(=O)c3cnc4ccc(-c5ccc6oc(N)nc6c5)cn34)C2)CCN1C [compound 508]
					> 7.00	> 5.00	> 5.00	> 5.00	> 6.00	C[C@H]1CN(C2CN(C(=O)c3cnc4ccc(-c5ccc6oc(N)nc6c5)cn34)C2)CCN1 [compound 510]
					> 7.00	> 5.00	> 5.00	> 5.00	> 6.00	C[C@@H]1CN(C2CN(C(=O)c3cnc4ccc(-c5ccc6oc(N)nc6c5)cn34)C2)CCN1 [compound 511]
